Among the data in US4808607A, “Imidazole analogs of mevalonolactone and derivatives thereof for use in inhibiting cholesterol biosynthesis and lowering blood cholesterol level” (Sandoz Pharm. Corp., priority 1987, dated 1989) are IC50 and ED50 values, retold here.

One assay concerns the target T1, HMG-CoA reductase (Rattus norvegicus, UniProt P51639).
T1 construct: In the assay the microsomes are the source of the HMG-CoA reductase enzyme; from tissue; host or cells: liver microsomes of male Sprague-Dawley rats
T1 sequence (P51639 1-887): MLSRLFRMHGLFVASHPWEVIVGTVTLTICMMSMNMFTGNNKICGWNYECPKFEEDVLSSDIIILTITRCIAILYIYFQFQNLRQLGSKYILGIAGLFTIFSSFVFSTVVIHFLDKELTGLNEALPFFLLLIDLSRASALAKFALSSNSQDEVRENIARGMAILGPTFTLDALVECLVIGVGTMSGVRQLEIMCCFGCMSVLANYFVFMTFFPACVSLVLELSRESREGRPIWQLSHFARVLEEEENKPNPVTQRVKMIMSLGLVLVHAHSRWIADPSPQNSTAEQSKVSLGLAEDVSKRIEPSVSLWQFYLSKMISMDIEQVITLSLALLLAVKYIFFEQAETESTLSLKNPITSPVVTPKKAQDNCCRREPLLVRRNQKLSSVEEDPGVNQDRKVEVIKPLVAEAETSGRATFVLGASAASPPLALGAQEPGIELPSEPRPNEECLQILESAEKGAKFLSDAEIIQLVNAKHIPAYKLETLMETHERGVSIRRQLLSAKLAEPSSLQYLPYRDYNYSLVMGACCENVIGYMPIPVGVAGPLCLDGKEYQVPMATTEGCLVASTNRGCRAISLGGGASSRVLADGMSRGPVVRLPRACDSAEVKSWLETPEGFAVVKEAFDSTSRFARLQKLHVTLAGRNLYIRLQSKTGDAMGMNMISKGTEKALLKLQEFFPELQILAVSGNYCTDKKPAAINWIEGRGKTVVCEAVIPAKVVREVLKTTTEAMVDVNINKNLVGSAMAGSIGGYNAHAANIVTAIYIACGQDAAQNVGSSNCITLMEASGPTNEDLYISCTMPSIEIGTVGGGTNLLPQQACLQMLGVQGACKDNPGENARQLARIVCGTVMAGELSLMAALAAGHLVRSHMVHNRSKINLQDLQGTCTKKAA
Nature of the assay: Test A. In Vitro Microsomal Assay of HMG-CoA Reductase Inhibition. In kind it is biochemical, rat (male Sprague-Dawley). As to the method: The compounds of Formula I and the pharmaceutically acceptable acid addition salts thereof are competitive inhibitors of 3-hydroxy-3-methylglutaryl coenzyme A (HMG-CoA) reductase, the rate limiting enzyme in cholesterol biosynthesis, and, therefore, they are inhibitors of cholesterol biosynthesis.
Test A. In Vitro Microsomal Assay of HMG--CoA Reductase Inhibition:
200 μl. aliquots (1.08-1.50 mg./ml.) of rat liver microsomal suspensions, freshly prepared from male SpragueDawley rats (150-225 g. body weight), in Buffer A with 10 mmol. dithiothreitol are incubated with 10 μl. of a solution of the test substance in dimethylacetamide and assayed for HMG--CoA reductase activity as described in Ackerman et al., J. Lipid Res. 18, 408-413 (1977), the concentration of the test substance in the assay system being 0.0001-2,000 μmolar. In the assay the microsomes are the source of the HMG-CoA reductase enzyme which catalyzes the reduction of HMG-CoA to mevalonate. The assay employs a chloroform extraction to separate the product, [^14 C]mevalonolactone, formed by the HMG-CoA reductase reduction of the substrate, [^14 C]HMG-CoA. [^3 H]mevalonolactone is added as an internal reference. Inhibition of HMG-CoA reductase is calculated from the decrease in specific activity ([^14 C/^3 H]mevalonate) of test groups compared to controls.
The IC50 is the concentration of the test substance in the assay system calculated or observed to produce a 50% inhibition of HMG-CoA reductase activity.

The test system of assay [1] is 3β-hydroxysterol synthesis (cholesterol biosynthesis). Nature of the assay: Test B. In Vivo Cholesterol Biosynthesis Inhibition Test. Details: species or system rat (male Wistar Royal Hart). Conditions: Rattus norvegicus, read-out: ED50 in Test B (dose producing 50% inhibition of 3β-hydroxysterol synthesis). As to the method:
Test B. In Vivo Cholesterol Biosynthesis Inhibition Test: In vivo studies utilize male Wistar Royal Hart rats weighing 150±20 g. which have been kept for 7-10 days on an altered light cycle (6:30 A.M. - 6:30 P.M. dark) housed two per cage and fed powdered Purina Rat Chow and water ad libitum. Three hours before the diurnal maximum of cholesterol synthesis at mid-dark, the rats are administered orally the test substance (e.g., 0.001-200 mg./kg. body weight) dissolved or as a suspension in 0.5% carboxymethylcellulose in a volume of 1 ml./100 g. body weight. Controls receive vehicle alone. One hour after receiving the test substance (or the vehicle alone), the rats are injected intraperitoneally with about 25 μCi/100 g. body weight of sodium [1-^14 C]acetate 1-3 mCi/mmol. Two hours after mid-dark, blood samples are obtained under sodium hexobarbitol anesthesia, and the serum is separated by centrifugation. […] The [^14 C]digitonides are then counted by liquid scintillation spectrometry. After correcting for efficiencies, the results are calculated in nCi (nanocuries) of 3β-hydroxysterol formed per 100 ml. of serum.

Setting [2] is: rat liver microsomes, [14C]HMG-CoA substrate, test substance in dimethylacetamide, read-out: IC50 in Test A (50% inhibition of HMG-CoA reductase activity).
Where [3] appears, read: oral, single dose, male rats, [1-14C]acetate i.p. 1 h after dose, serum 3β-hydroxysterols.

Where two headings read alike, the source gives them in different places.

In general, IC50 refers to the point on the concentration scale where inhibition reaches its midpoint. By ED50 is commonly meant the dose at which the effect has come halfway, by size or by number of responders. As to `CC(C)c1nc(-c2ccccc2)n(-c2ccc(F)cc2)c1/C=C/[C@@H](O)C[C@@H](O)CC(=O)O` (relative stereo) [Example 2, Sodium (±)-erythro-(E)-3,5-dihydroxy-7-[1'-(4"-fluorophenyl)-4'-(1"-methylethyl)-2'-phenyl-1H-imidazol-5'-yl]hept-6-enoate], the 50% inhibitory concentration (IC50) at HMG-CoA reductase (setting [2]) stood at 2.6 nM. The median effective dose (ED50) in assay [1] (setting [3]) came out at 0.025 mg/kg.
Turning to `CC(C)c1nc(-c2ccccc2)n(-c2ccccc2)c1/C=C/[C@@H](O)C[C@@H](O)CC(=O)O` (relative stereo) [Example 10], the half-maximal inhibitory concentration (IC50) on HMG-CoA reductase (setting [2]) is 36 nM. In addition, the median effective dose (ED50) in assay [1] (setting [3]) worked out at 0.028 mg/kg.
Consider `CC[C@H](C)C(=O)O[C@H]1CCC=C2C=C[C@H](C)[C@H](CC[C@@H]3C[C@@H](O)CC(=O)O3)[C@H]21` [Compactin, reference compound], for which, on HMG-CoA reductase (setting [2]), the 50% inhibitory concentration (IC50) was determined as 1010 nM. In assay [1] (setting [3]), the 50% effective dose (ED50) amounted to 3.5 mg/kg.
In the case of `CC(C)c1nc(-c2ccccc2)n(-c2ccc(F)cc2)c1/C=C/[C@@H](O)C[C@@H](O)CC(=O)O` [Example 2A, Sodium (3R,5S)-(E)-3,5-dihydroxy-7-[1'-(4"-fluorophenyl)-4'-(1"-methylethyl)-2'-phenyl-1H-imidazol-5'-yl]hept-6-enoate], at HMG-CoA reductase (setting [2]), the 50% inhibitory concentration (IC50) was found to be 2 nM. Besides, in assay [1] (setting [3]), the ED50 is 0.02 mg/kg.
In the case of `CCC(C)C(=O)OC1CC(C)C=C2C=CC(C)C(CCC3CC(O)CC(=O)O3)C21` (stereo not shown) [Mevinolin, reference compound], the IC50 against HMG-CoA reductase was found to be 140 nM. Also, the 50% effective dose (ED50) in assay [1] (po, 1 h) is 0.38 mg/kg.
